Experimental data as given in patent US7875607B2, “7,8-bicycloakyl-chroman derivatives” (Ampere Life Sciences, Inc., priority 2004, dated 2011).
pEC50, pIC50: −log10 of the molar value.

Legend:
[1] = biological target: T1, human recombinant 5-lipoxygenase (Homo sapiens, UniProt P09917); test: 5-Lipoxygenase enzyme assay; format: biochemical; details: 70 μM arachidonic acid, pH 7.4
T1 construct: purchased Cayman 60402
T1 sequence (P09917 1-674): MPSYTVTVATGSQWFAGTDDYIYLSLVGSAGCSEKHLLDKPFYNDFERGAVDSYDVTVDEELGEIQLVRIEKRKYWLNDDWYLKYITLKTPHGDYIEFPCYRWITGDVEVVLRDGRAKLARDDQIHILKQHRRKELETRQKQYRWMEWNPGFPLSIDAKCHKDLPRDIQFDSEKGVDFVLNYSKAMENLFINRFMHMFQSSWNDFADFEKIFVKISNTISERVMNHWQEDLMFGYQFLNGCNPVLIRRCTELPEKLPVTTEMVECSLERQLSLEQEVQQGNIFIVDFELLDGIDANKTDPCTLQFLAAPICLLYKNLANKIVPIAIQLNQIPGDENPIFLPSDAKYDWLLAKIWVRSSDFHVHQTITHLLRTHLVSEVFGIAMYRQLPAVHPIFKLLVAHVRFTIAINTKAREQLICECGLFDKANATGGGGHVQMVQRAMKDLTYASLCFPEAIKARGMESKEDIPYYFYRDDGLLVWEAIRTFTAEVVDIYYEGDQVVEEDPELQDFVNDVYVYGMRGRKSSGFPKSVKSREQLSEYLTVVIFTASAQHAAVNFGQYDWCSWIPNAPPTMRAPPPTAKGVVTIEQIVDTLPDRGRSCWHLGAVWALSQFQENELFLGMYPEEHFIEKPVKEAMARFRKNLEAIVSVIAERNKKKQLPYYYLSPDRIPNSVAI
Description: This procedure was used for measuring the enzymatic activity of human recombinant 5-lipoxygenase using a […] method based on the ferric oxidation of xylenol orange.
Human recombinant 5-lipoxygenase (Cayman Cat # 60402) was used in this assay. The test compound and/or vehicle was added to 0.5U 5-lipoxygenase in 50 mM Tris-HCl buffer, pH 7.4. The reaction was initiated by addition of 70 μM arachidonic acid in Tris-HCl buffer, pH 7.4, and terminated after a 10 minute incubation at room temperature by addition of FOX reagent (25 mM sulphuric acid, 100 μM xylenol orange, 100 μM iron (II) sulphate, methanol:water 9:1). The yellow color of acidified xylenol orange was converted to a blue color by the lipid hydroperoxide-mediated oxidation of Fe^2+ ions and the interaction of the resulting Fe^3+ ions with the dye. The complex was allowed to form during a 1 hour incubation at room temperature with shaking. Absorbance of the Fe^3+ complex was then measured at […] using a spectrophotometer.
Negative controls contained enzyme during the incubation step but substrate was not added until after the FOX reagent.
Compounds were screened at 5 concentrations in triplicate starting at 10 μM

[2] = test system: dopaminergic neuronal cell line; test: High glutamate-induced oxidative stress assay (HGOS); format: cell-based; details: Mus musculus; 30 mM glutamate, 16 hrs; read-out: EC50, protection against HGOS cell injury and cell death
From the text: Protection against redox stress can be further evaluated in cell culture using high glutamate induced oxidative stress (HGOS) in mouse dopaminergic cell lines. The cytotoxic effect of glutamate is not due to excitotoxicity, as this cell line is devoid of inotropic glutamate receptors. Rather, the glutamate-induced toxicity of dopaminergic cells is associated with an inhibition of cystine transport which subsequently leads to depletion of intracellular glutathione (GSH) levels (Murphy T. H., et al. Neuron 2, 1547-1558, 1989), activation of neuronal 12-lipoxygenase (Li, Y. et al., Neuron 19, 453-463, 1997), increased ROS production (Tan S. et al., J. Cell Biol. 141, 1423-1432, 1998) and elevated intracellular Ca^2+ (Li, Y. et al., see supra). Some molecules were measured for their ability to protect cells against glutamate-induced stress and the assay is detailed in Examples.
This procedure was used to induce high glutamate-induced oxidative stress (HGOS) in a dopaminergic neuronal cell line. Using this assay the potency and efficacy of test articles against HGOS neuronal cell injury and cell death was established in a high throughput manner.
The cells were seeded into 96-well plates at a density of 2000 per well and left to grow for 72 hours in a 33° C. incubator with 5% CO2 in air atmosphere. The passage number of the cells for each assay experiment were no later than p11 in order to minimize experimental variation.
All compounds were dissolved in DMEM-No Glu containing 1 mM glucose, 30 mM glutamate and 1×Pen/Strep. DMEM-No Glu with 1 mM glucose and 1×P/S was used as the negative control, DMEM-No Glucose with 1 mM glucose, […] was used as a positive control and 100 μM Glutathione was added to the positive control as a standard. All of the procedures for this involving the making and dilution of compounds were performed using aseptic conditions and with minimal light.
The plates were removed from the incubator and examined under the microscope for morphological appearance and density. Using an aseptic technique and an 8-channel aspirator the media was carefully removed from the cells and replaced with 200 μl of 1×HBSS. This was done as quickly as possible to prevent the cells drying out. The plates were then placed in the humidified 37° C. incubators of the Biomek 2000 Side Loader. Four plates were washed at a time so as to minimize the time that the cells were sitting in 1×HBSS prior to addition of the compound test solution.
The Beckman Biomek workstations were used to load the compounds and controls from the mother plates onto the cell plates that were prewashed with HBSS under sterile conditions. The plates were incubated in the upper HTS incubator at 37° C. in 5% CO2 for exactly 16 hrs. The following day, using the Beckman Biomek workstations, the plates were removed from the incubator. Using Cell Tracker Addition, the compounds were removed from the plates, washed once with […] of pre-warmed 1×HBSS and then 100 μL of 5 μM Cell Tracker Green was added to each well. The plates were incubated at 37° C. for 30 min to allow the dye to enter the cell and be cleaved by the esterases. After washing the cells twice with prewarmed 1×HBSS, the plates were read with the 485 excitation; 538 emission filter pair on a Fluoroskan.

[3] = test system: LTB4 release from MPRO cell line; test: LTB4-cell assay; format: cell-based; details: Mus musculus; differentiated MPRO cells, 1 μM A23187, 1 hour; read-out: EC50, inhibition of LTB4
Description: This procedure was used for measuring the release of the leukotriene LTB4 from a neutrophil cell line using a competitive ELISA technique.
A mouse promyelocytic cell line (MPRO) was used in this assay. These cells are committed immature neutrophils that can be differentiated into mature neutrophils by treatment with 10 μM all-trans retinoic acid for 72 hours
Following 72 hours of differentiation, cells were stimulated with 1 μM of a calcium ionophore (A23187) in the presence or absence of test compound or vehicle for 1 hour at 37° C. After this time, supernatant was removed from the cells and the LTB4 levels were determined following manufacturer's instructions, using a Leukotriene B4 EIA kit from Cayman (Cat # 520111)
The negative controls were media samples from differentiated but unstimulated cells.
The compounds were screened at 5 concentrations in quadruplicate starting at 10 μM

[4] = test system: LTB4 production in heparinized whole blood; test: Inhibition of LTB4 production in blood; format: cell-based, rat or mouse; details: 20 μM A23187, read-out: EC50, protection against LTB4
Description: The blood was collected in heparinized tubes or syringes to prevent clotting. Heparin was at 20 USP U/ml. About 3-5 ml of blood was collected per rat and about 0.5-0.75 ml per mouse. This assay required 200 μl/data point, therefore a 96 well plate requires 20 ml.
The Calcium ionophore A23187 was prepared as a 10 mM stock solution in DMSO and the test agent is prepared in DMSO so that <1 μl DMSO will be added to the well
200 μl blood per well were added in a round bottom 96 well clear plastic 96 well plate followed by the test agent. After 10 minutes incubation at 37° C., 5 μl of Calcium ionophore A23187 for a final concentration of 20 μM were added and mixed, and further incubated for 30 min. After 1000×g centrifugation to pellet blood cells, 20 μl plasma was carefully removed.
20 μl plasma were added to 80 μl methanol to precipitate protein and mixed. This was further incubated 10 min. at room temperature and centrifuged at 1000×g to pellet protein.
Following manufacturer's instructions, the commercially available EIA kit was used to subsequently measure the LTB4 production in the samples. The LTB4 levels produced in the vehicle control sample were then compared to those in which the test compound had been added. From this a percent inhibition of LTB4 production by each concentration of test compound was calculated and the IC50 for inhibition of LTB4 production for each test compound was determined.

[5] = test system: ELAM (E-selectin) expression in endothelial cells; test: Cell-ELAM assay; format: cell-based; details: 10 μg/ml LPS and 100 pg/ml IL-1β, 6 hours
From the text: In vitro cell-based assays for inflammation are well known in the art, for example e-selectin (also named Endothelial Leukocyte Adhesion Molecule or ELAM) or C-reactive protein (CRP). The ELAM assay measures in vitro activity of the test compounds in reducing expression of ELAM in activated endothelial cells. Briefly, endothelial cells are […] by adding known activators such as lipopolysaccharides, TNF or IL-1, alone or in some combination. Activated cells produce ELAM, which can be measured using, for example, an E-selectin monoclonal antibody-based ELISA assay. Similarly the CRP assay measures in vitro activity of test compounds in reducing expression of CRP in Human Hep3B epithelial cells. The activated cells produce CRP, which can be measured with a CRP ELISA assay.
Endothelial-Leukocyte Adhesion Molecule (ELAM), also known as E-selectin, was expressed on the surface of endothelial cells. In this assay, lipopolysaccharide (LPS) and IL-1β were used to stimulate the expression of ELAM; test agents were tested for their abilities to reduce this expression, in accordance with studies showing that reduction of leukocyte adhesion to endothelial cell surface was associated with decreased cellular damage (e.g., Takada, M., Et al., Transplantation 64: 1520-25, 1997; Steinberg, J. B., et al., J. Heart Lung Trans. 13:306-313, 1994).
Endothelial cells may be selected from any of a number of sources and cultured according to methods known in the art; including, for example, coronary artery endothelial cells, human brain microvascular endothelial cells (HBMEC; Hess, D. C., et al., Neurosci. Lett. 213(1): 37-40, 1996), or lung endothelial cells. Cells were conveniently cultured in 96-well plates. Cells were stimulated by adding a solution to each well containing 10 μg/ml LPS and 100 pg/ml IL-1β for 6 hours in the presence of test agent (specific concentrations and time may be adjusted depending on the cell type) Treatment buffer was removed and replaced with pre-warmed Fixing Solution® (100 μl/well) for 25 minutes at room temperature. Cells were then washed 3×, then incubated with Blocking Buffer (PBS+2% FBS) for 25 minutes at room temperature. Blocking Buffer containing Monoclonal E-Selectin Antibody (1:750, Sigma Catalog # S-9555) was added to each well. Plates were sealed and stored at 4° overnight. Plates were washed 4× with 160 μL Blocking Buffer per well. Second Antibody-HRP diluted 1:5000 in Blocking Buffer was then added (100 μL/well), and plates were incubated at room temperature (protected from light) for two hours. Plates were then washed 4× with Blocking Buffer before addition of 100 μL of ABTS Substrate solution at room temperature (Zymed, Catalog # 00-2024). Wells were allowed to develop for 35 minutes, before measurement at 402 nm in a Fluoroskan® Reader with shake program for 10 seconds. Positive results were recorded as a decrease in ELAM concentration in tested wells, as compared to control wells.

Compound | pIC50 [1] | pEC50 [5] | pEC50 [2] | pEC50 [3] | pEC50 [4]
CC1(C)CCc2cc(O)c3c(c2O1)C1C=CC3C1 (stereo not shown) [2,2-Dimethyl-3,4,7,10-tetrahydro-7,10-methano-2H-benzo[h]chromen-6-ol] | ≥ 5.30 | – | ≥ 6.00 | ≥ 5.30 | ≥ 5.00
CC(C)=CCc1c(O)c2c(c3c1CCC(C)(C)O3)C1C=CC2CC1 (stereo not shown) [2,2-Dimethyl-5-(3-methyl-but-2-enyl)-3,4,7,10-tetrahydro-7,10-ethano-2H-benzo[h]chromen-6-ol] | ≥ 5.30 | ≥ 4.52 | ≥ 6.00 | – | –
CC1(CCCl)CCc2cc(O)c3c(c2O1)C1CCC3C1 (stereo not shown) [2-(2-Chloro-ethyl)-2-methyl-3,4,7,8,9,10-hexahydro-7,10-methano-2H-benzo[h]chromen-6-ol] | – | ≥ 4.52 | ≥ 6.00 | – | –
CC1(CCCCl)CCc2cc(O)c3c(c2O1)C1CCC3CC1 (stereo not shown) [2-(3-Chloro-propyl)-2-methyl-3,4,7,8,9,10-hexahydro-7,10-ethano-2H-benzo[h]chromen-6-ol] | – | – | ≥ 6.00 | ≥ 5.30 | ≥ 5.00

Now from value to compound, other results behind:

pIC50 [1] | pEC50 [5] | Compound | pEC50 [2] | pEC50 [3] | pEC50 [4]
– | ≥ 4.52 | CC1(CCCSc2nc3ccccc3s2)CCc2cc(O)c3c(c2O1)C1CCC3C1 (stereo not shown) [2-[3-(Benzothiazol-2-ylsulfanyl)-propyl]-2-methyl-3,4,7,8,9,10-hexahydro-7,10-methano-2H-benzo[h]chromen-6-ol] | ≥ 6.00 | – | –
≥ 5.30 | – | CC1(C)CCc2c(Br)c(O)c3c(c2O1)C1CCC3CC1 [5-Bromo-2,2-dimethyl-3,4,7,8,9,10-hexahydro-7,10-ethano-2H-benzo[h]chromen-6-ol] | ≥ 6.00 | – | ≥ 5.00
– | ≥ 4.52 | CC1(C)CCc2c(Br)c(O)c3c(c2O1)C1CCC3C1 (stereo not shown) [5-Bromo-2,2-dimethyl-3,4,7,8,9,10-hexahydro-7,10-methano-2H-benzo[h]chromen-6-ol] | ≥ 6.00 | – | –
